# Source: paper doi:10.1101/2021.09.30.462449v1 (biorxiv, 2021)
# Tests used:
# Test in all cases: biochemical
# Conditions in all cases: read-out: % inhibition mean (Lanthascreen)
# ABL1 Q252H = ABL1 Q252H (Homo sapiens, UniProt P00519, Q252H)
# ACVR2A = ACVR2A (Homo sapiens, UniProt P27037)
# ACVRL1 (ALK1) = ACVRL1 (ALK1) (Homo sapiens, UniProt P37023)
# BRAF = BRAF (Homo sapiens, UniProt P15056)
# CAMK2G (CaMKII gamma) = CAMK2G (CaMKII gamma) (Homo sapiens, UniProt Q13555)
# CDK14 (PFTK1)/cyclin Y = CDK14 (PFTK1)/cyclin Y (Homo sapiens, UniProt O94921)
# CDK8/cyclin C = CDK8/cyclin C (Homo sapiens, UniProt P49336)
# CDK9/cyclin K = CDK9/cyclin K (Homo sapiens, UniProt P50750)
# EPHA3 = EPHA3 (Homo sapiens, UniProt P29320)
# EPHA6 = EPHA6 (Homo sapiens, UniProt Q9UF33)
# FGFR3 K650M = FGFR3 K650M (Homo sapiens, UniProt P22607, K650M)
# KIT V654A = KIT V654A (Homo sapiens, UniProt P10721, V654A)
# KIT Y823D = KIT Y823D (Homo sapiens, UniProt P10721, Y823D)
# LATS2 = LATS2 (Homo sapiens, UniProt Q9NRM7)
# LIMK1 = LIMK1 (Homo sapiens, UniProt P53667)
# MAP2K1 (MEK1) = MAP2K1 (MEK1) (Homo sapiens, UniProt Q02750)
# [1] = molecular target: MAP2K1 (MEK1) S218D S222D (Homo sapiens, UniProt Q02750, S218D/S222D)
# MAP3K14 (NIK) = MAP3K14 (NIK) (Homo sapiens, UniProt Q99558)
# MAPK9 (JNK2) = MAPK9 (JNK2) (Homo sapiens, UniProt P45984)
# MERTK (cMER) A708S = MERTK (cMER) A708S (Homo sapiens, UniProt Q12866, A708S)
# NLK = NLK (Homo sapiens, UniProt Q9UBE8)
# RIPK3 = RIPK3 (Homo sapiens, UniProt Q9Y572)
# SIK1 = SIK1 (Homo sapiens, UniProt P57059)
# TAOK1 = TAOK1 (Homo sapiens, UniProt Q7L7X3)
# TGFBR2 = TGFBR2 (Homo sapiens, UniProt P37173)
# TLK2 = TLK2 (Homo sapiens, UniProt Q86UE8)
# TNK2 (ACK) = TNK2 (ACK) (Homo sapiens, UniProt Q07912)
# TTK = TTK (Homo sapiens, UniProt P33981)
# WNK3 = WNK3 (Homo sapiens, UniProt Q9BYP7)
# Chain of WNK3 (Q9BYP7 whole entry): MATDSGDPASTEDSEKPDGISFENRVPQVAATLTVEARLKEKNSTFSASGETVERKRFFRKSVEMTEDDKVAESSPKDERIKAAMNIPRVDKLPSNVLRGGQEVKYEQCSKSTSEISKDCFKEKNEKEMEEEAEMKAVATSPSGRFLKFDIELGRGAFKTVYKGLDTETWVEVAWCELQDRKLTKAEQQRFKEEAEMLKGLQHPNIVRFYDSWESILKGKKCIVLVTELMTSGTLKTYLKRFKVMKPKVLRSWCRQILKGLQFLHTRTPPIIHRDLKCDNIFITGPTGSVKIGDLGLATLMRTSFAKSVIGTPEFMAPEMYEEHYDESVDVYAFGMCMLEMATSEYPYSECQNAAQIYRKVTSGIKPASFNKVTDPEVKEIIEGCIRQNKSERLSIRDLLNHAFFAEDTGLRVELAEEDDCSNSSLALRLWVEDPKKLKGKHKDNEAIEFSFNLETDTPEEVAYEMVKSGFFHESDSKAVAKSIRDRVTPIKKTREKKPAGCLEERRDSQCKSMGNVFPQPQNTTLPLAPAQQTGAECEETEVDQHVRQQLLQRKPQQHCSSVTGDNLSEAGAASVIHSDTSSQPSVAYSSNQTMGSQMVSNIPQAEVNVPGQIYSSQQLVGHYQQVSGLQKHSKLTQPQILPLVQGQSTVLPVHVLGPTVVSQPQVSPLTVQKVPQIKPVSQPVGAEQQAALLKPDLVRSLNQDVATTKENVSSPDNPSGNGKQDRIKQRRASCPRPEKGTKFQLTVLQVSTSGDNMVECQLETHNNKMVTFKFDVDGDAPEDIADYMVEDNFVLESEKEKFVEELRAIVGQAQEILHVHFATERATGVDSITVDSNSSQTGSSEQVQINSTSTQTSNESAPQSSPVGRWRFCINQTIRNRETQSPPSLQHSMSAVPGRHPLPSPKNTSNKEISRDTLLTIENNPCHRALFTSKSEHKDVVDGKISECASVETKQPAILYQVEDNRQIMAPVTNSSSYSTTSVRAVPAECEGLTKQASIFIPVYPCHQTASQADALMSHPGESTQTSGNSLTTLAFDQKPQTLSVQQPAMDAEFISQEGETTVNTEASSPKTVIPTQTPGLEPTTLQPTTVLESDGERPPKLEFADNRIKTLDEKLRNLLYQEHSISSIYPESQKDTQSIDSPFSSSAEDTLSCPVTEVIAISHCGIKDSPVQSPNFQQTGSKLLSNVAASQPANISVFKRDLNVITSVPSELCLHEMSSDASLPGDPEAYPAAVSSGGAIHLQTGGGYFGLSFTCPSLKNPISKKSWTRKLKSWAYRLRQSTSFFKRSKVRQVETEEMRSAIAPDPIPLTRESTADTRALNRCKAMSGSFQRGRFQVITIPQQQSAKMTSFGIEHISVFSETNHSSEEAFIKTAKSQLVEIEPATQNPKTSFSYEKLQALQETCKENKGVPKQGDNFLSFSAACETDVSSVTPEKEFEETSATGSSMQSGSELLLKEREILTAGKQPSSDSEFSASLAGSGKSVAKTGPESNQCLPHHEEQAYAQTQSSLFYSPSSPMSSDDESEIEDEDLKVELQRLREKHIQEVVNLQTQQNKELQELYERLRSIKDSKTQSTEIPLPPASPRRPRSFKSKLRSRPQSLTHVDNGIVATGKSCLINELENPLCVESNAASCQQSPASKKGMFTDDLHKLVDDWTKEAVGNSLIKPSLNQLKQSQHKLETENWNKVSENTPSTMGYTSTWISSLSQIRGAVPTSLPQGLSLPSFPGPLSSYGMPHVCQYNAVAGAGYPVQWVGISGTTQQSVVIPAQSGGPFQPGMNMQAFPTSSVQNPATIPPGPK
# Chain of NLK (Q9UBE8 whole entry): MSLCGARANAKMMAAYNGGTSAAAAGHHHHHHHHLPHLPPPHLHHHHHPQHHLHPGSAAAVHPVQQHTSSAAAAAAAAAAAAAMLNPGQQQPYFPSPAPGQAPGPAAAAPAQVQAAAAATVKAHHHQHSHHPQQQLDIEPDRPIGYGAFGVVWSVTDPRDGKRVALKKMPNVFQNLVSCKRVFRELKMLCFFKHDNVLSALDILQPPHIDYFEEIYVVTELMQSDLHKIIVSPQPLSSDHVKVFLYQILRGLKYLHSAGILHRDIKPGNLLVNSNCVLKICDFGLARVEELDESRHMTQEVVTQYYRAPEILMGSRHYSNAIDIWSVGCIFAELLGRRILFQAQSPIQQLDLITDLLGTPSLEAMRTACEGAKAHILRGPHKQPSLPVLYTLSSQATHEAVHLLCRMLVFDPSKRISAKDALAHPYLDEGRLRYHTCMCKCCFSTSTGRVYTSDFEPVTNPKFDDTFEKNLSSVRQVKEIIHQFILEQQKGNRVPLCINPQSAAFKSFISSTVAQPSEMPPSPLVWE
# Chain of FGFR3 K650M (P22607 whole entry K650M): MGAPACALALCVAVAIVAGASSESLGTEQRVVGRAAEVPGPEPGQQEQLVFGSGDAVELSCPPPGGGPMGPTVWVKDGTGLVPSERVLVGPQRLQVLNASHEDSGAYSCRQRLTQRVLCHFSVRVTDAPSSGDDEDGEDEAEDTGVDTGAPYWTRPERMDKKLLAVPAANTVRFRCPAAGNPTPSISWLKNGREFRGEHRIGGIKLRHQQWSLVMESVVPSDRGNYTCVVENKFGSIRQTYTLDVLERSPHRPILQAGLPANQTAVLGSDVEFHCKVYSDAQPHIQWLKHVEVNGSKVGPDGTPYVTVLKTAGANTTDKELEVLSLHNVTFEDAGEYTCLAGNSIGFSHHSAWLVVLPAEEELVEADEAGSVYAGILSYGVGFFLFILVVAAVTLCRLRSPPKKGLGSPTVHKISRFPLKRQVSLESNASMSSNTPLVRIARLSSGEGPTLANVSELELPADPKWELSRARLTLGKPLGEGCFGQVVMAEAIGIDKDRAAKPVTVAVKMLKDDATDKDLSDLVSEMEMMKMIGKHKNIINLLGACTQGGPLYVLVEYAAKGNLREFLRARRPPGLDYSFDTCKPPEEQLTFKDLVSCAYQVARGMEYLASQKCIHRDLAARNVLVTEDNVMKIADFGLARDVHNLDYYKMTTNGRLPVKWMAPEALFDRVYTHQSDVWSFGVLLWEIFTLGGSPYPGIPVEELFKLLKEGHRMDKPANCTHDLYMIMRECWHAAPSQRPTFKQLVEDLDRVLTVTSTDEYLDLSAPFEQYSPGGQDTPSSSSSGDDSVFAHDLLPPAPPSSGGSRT
# Chain of EPHA6 (Q9UF33 whole entry): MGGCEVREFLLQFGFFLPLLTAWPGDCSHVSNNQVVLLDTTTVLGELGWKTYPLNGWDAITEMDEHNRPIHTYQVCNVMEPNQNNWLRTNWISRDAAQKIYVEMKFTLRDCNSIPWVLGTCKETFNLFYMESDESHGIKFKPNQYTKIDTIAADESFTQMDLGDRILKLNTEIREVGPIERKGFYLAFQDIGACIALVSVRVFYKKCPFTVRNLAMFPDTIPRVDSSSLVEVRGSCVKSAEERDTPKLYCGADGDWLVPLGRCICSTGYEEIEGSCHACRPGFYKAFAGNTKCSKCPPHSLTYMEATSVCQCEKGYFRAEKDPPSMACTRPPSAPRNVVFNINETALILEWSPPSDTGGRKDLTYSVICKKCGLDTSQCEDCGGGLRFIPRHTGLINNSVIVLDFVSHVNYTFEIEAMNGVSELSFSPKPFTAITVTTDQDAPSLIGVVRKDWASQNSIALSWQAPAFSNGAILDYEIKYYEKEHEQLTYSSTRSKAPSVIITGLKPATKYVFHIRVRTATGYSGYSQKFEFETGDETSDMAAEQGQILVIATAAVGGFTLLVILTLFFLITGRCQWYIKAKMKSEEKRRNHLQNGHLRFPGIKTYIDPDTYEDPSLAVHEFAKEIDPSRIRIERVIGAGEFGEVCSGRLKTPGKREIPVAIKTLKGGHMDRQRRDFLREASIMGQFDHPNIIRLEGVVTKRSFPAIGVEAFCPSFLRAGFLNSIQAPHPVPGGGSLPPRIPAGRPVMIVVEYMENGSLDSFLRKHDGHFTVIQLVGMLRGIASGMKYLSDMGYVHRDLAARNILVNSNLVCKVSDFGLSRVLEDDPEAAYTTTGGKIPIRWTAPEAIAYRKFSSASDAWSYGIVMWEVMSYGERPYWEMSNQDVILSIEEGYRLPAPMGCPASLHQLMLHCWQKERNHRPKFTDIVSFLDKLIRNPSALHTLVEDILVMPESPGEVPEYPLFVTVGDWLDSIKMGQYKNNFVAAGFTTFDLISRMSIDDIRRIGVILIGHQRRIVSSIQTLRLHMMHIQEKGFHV
# Chain of CDK8/cyclin C (P49336 whole entry): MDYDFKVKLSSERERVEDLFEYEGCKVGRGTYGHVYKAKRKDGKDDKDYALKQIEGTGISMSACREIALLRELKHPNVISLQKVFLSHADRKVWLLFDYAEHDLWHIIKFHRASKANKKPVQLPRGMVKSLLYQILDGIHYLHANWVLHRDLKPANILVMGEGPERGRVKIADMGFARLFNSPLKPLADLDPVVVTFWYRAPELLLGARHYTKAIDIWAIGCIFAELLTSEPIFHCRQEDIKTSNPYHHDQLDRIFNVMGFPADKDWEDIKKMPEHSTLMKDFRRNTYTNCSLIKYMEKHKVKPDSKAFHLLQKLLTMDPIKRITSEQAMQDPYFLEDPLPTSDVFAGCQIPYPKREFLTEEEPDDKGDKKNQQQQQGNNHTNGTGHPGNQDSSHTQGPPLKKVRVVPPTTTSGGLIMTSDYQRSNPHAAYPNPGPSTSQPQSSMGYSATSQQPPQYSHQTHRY
# Chain of CDK8/cyclin C (P24863 whole entry partner): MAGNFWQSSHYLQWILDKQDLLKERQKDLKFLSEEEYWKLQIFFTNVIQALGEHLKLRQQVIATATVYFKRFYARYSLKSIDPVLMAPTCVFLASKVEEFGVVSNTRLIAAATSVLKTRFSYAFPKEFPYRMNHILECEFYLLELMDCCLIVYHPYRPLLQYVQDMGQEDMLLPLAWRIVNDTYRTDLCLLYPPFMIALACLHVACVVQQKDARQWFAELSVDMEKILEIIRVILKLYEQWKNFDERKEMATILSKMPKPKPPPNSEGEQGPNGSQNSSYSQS
compound,measurement,setting,value
"COc1ccc2nc3cc(Cl)ccc3c(Nc3cc(CN4CCCC4)c(O)c(CN4CCCC4)c3)c2n1 [Pyronaridine, 4-[(7-Chloro-2-methoxybenzo[b][1,5]naphthyridin-10-yl)amino]-2,6-bis(1-pyrrolidinylmethyl)phenol phosphate (1:4)]",inhibition at 1 µM,ABL1 Q252H,-10%
same,inhibition at 1 µM,ACVR2A,-6%
same,inhibition at 1 µM,ACVRL1 (ALK1),12%
same,inhibition at 1 µM,BRAF,-11%
same,inhibition at 1 µM,CAMK2G (CaMKII gamma),-1%
same,inhibition at 1 µM,CDK14 (PFTK1)/cyclin Y,14%
same,inhibition at 1 µM,CDK8/cyclin C,3%
same,inhibition at 1 µM,CDK9/cyclin K,5%
same,inhibition at 1 µM,EPHA3,11%
same,inhibition at 1 µM,EPHA6,-3%
same,inhibition at 1 µM,FGFR3 K650M,-4%
same,inhibition at 1 µM,KIT V654A,10%
same,inhibition at 1 µM,KIT Y823D,-4%
same,inhibition at 1 µM,LATS2,-4%
same,inhibition at 1 µM,LIMK1,-7%
same,inhibition at 1 µM,MAP2K1 (MEK1),1%
same,inhibition at 1 µM,[1],3%
same,inhibition at 1 µM,MAP3K14 (NIK),2%
same,inhibition at 1 µM,MAPK9 (JNK2),6%
same,inhibition at 1 µM,MERTK (cMER) A708S,0%
same,inhibition at 1 µM,NLK,8%
same,inhibition at 1 µM,RIPK3,-7%
same,inhibition at 1 µM,SIK1,2%
same,inhibition at 1 µM,TAOK1,-4%
same,inhibition at 1 µM,TGFBR2,-4%
same,inhibition at 1 µM,TLK2,-2%
same,inhibition at 1 µM,TNK2 (ACK),1%
same,inhibition at 1 µM,TTK,4%
same,inhibition at 1 µM,WNK3,7%
